Experimental data reported in ChEMBL document CHEMBL4393726, “Distinct biological responses of metastatic castration resistant prostate cancer cells upon exposure to G-quadruplex interacting naphthalenediimide derivatives” (Eur J Med Chem, 2019).
Calls of active or inactive are those of the source. No cut-off for these calls is given here.

Assays:
[1] = tested on: PC-3; assay: Effect on human PC3 cell growth assessed as no change in population doubling at 48 hr IC50 incubated for 48 hrs by cell counter based trypan blue exclusion assay; format: functional
[2] = tested on: PC-3; assay: Down regulation of EGFR protein expression in human PC3 cells at 48 hrs IC50 incubated for 48 hrs by Western immunoblot assay relative to control; format: functional
[3] = biological target: T1, Mitogen-activated protein kinase; ERK1/ERK2 (Homo sapiens) (UniProt P27361+P28482); assay: Effect on ERK 1/2 phosphorylation at T202/Y204 residues in human PC3 cells assessed as decrease in ERK1/2 phosphorylation at T202/Y204 at 48 hrs IC50 incubated for 48 hrs by Western immunoblot assay; format: cell-based
[4] = tested on: Quadruplex DNA; assay: Binding affinity to synthetic 5'Dabcyl/3'-FAM-labeled EGFR 272 G4 quadruplex DNA folded DNA assessed as entropy change by isothermal titration calorimetry; format: nucleic-acid assay
[5] = tested on: DU-145; assay: Effect on human DU145 cell growth assessed as change in cell growth at 72 hrs 0.5 times IC50 treated for every week for 56 days by cell counter based trypan blue exclusion assay; format: functional
[6] = tested on: PC-3; assay: Effect on ERK 1/2 basel level in human PC3 cells assessed as downregulation of ERK 1/2 basal level at 48 hrs IC50 incubated for 96 hrs by Western immunoblot assay; format: ADME, cell-based; settings: pc-3, 96 h
[7] = tested on: DU-145; assay: Effect of EGFR protein expression in human DU145 cell at 48 hrs IC50 treated for every week for 56 days by Western immunoblotting analysis; format: functional, cell-based
[8] = tested on: DU-145; assay: Induction of apoptosis in human DU145 cells assessed as increase in cleaved PARP1 level after 48 to 96 hrs by Western blot analysis; format: functional, cell-based
[9] = tested on: Quadruplex DNA; assay: Binding affinity to synthetic 5'Dabcyl/3'-FAM-labeled EGFR 272 G4 quadruplex DNA folded DNA assessed as enthalpy change by isothermal titration calorimetry; format: nucleic-acid assay
[10] = tested on: DU-145; assay: Cytotoxicity against human DU145 cells assessed as decrease in cell viability after 48 hrs by MTS assay; format: functional, cell-based; settings: DU-145, 48 h
[11] = tested on: PC-3; assay: Down regulation of EGFR protein expression in human PC3 cells after 24 hrs by Western immunoblot assay; format: functional, cell-based
[12] = tested on: PC-3; assay: Effect on AKT basal level in homozygous PTEN-deficient human PC3 cells assessed as reduction in AKT basal level at 48 hr IC50 incubated for 48 to 96 hrs by Western immunoblot assay; format: ADME, cell-based
[13] = biological target: T1, Mitogen-activated protein kinase; ERK1/ERK2 (Homo sapiens); assay: Effect on ERK 1/2 phosphorylation at T202/Y204 residues in human DU145 cells assessed as increase in ERK1/2 phosphorylation at T202/Y204 at 48 hrs IC50 incubated for 48 to 96 hrs by Western immunoblot assay; format: cell-based
[14] = biological target: RAC-alpha serine/threonine-protein kinase (Homo sapiens) (UniProt P31749); assay: Effect on AKT phosphorylation at S473 homozygous PTEN-deficient human PC3 cells as reduction in AKT phosphorylation at S473 residue at 48 hr IC50 incubated for 48 to 96 hrs by Western immunoblot assay
[15] = tested on: DU-145; assay: Effect on AKT basal level in heterozygous PTEN-positive human DU145 cells assessed as reduction in AKT basal level at 48 hrs IC50 incubated for 48 hrs by Western immunoblot assay; format: ADME, cell-based; settings: du-145, 48 h
[16] = tested on: Quadruplex DNA; assay: Stabilization of synthetic 5'Dabcyl/3'-FAM-labeled EGFR 272 G4 quadruplex DNA assessed as change in melting temperature by fluorescence melting assay; format: nucleic-acid assay
[17] = tested on: DU-145; assay: Effect on human DU145 cell growth assessed as population doubling at 48 hr IC50 incubated for 96 hrs by cell counter based trypan blue exclusion assay (reference value: 2.89); format: functional
[18] = tested on: PC-3; assay: Induction of apoptosis in human PC3 cells assessed as increase in cleaved PARP1 level after 48 to 96 hrs by Western blot analysis; format: functional, cell-based
[19] = tested on: PC-3; assay: Effect on ephithelial-mesenchymal transition in human PC3 cell assessed as increase in vimentin at 48 hrs 0.5 times IC50 treated for every week for 56 days by Western immunoblotting analysis; format: functional, cell-based
[20] = tested on: DU-145; assay: Cytotoxicity against human DU145 cells assessed as decrease in cell viability after 24 hrs by MTS assay; format: functional, cell-based; settings: DU-145, 24 h
[21] = tested on: Quadruplex DNA; assay: Binding affinity to synthetic 5'Dabcyl/3'-FAM-labeled telomeric 22 G4 quadruplex DNA folded DNA assessed as entropy change by isothermal titration calorimetry; format: nucleic-acid assay
[22] = tested on: PC-3; assay: Effect on ephithelial-mesenchymal transition in human PC3 cell assessed as decrease in E-cadherin expression at 48 hrs 0.5 times IC50 treated for every week for 56 days by Western immunoblotting analysis; format: functional, cell-based
[23] = tested on: PC-3; assay: Cytotoxicity against human PC3 cells assessed as decrease in cell viability after 24 hrs by MTS assay; format: functional, cell-based; settings: PC-3, 24 h
[24] = tested on: Quadruplex DNA; assay: Binding affinity to synthetic 5'Dabcyl/3'-FAM-labeled telomeric 22 G4 quadruplex DNA folded DNA assessed as enthalpy change by isothermal titration calorimetry; format: nucleic-acid assay
[25] = tested on: PC-3; assay: Effect on telomeric C-circle DNA in human PC3 cell assessed as alternative telomere maintenance based increase in telomeric C-circle DNA level at 48 hrs 0.5 times IC50 treated for every week for 56 days [32P]-labeled (CCCTAA)3 probe incubated for 56 days followed by post incubation of 8 hrs in presence of Bacillus phage phi29 DNA polymerase and further heat inactivation at 65 degreeC for 20 mins by dot blot based CC assay; format: functional
[26] = tested on: DU-145; assay: Effect on ERK 1 basal level in human DU145 cells assessed as reduction in ERK 1 basal level at 48 hrs IC50 incubated for 48 hrs by Western immunoblot assay; format: ADME, cell-based; settings: du-145, 48 h
[27] = biological target: T1, Mitogen-activated protein kinase; ERK1/ERK2 (Homo sapiens); assay: Effect on ERK 1/2 phosphorylation at T202/Y204 residues in human PC3 cells assessed as decrease in ERK1/2 phosphorylation at T202/Y204 at 48 hrs IC50 incubated for 96 hrs by Western immunoblot assay; format: cell-based
[28] = tested on: Quadruplex DNA; assay: Stabilization of synthetic 5'Dabcyl/3'-FAM-labeled telomeric 22 G4 quadruplex DNA assessed as change in melting temperature by fluorescence melting assay; format: nucleic-acid assay
[29] = tested on: DU-145; assay: Cytotoxicity against human DU145 cells assessed as decrease in cell viability after 72 hrs by MTS assay; format: functional, cell-based; settings: DU-145, 72 h
[30] = species on record: Homo sapiens; assay: Effect on telomere DNA in human PC3 cell assessed as increase in telomere DNA length at 48 hrs 0.5 times IC50 treated for every week for 56 days by pulsed field electrophoresis/southern blot based densitometric analysis
[31] = species on record: Homo sapiens; assay: Effect on telomere DNA in human DU145 cells assessed as telomere DNA length at 48 hrs 0.5 times IC50 treated for every week for 56 days by pulsed field electrophoresis/southern blot based densitometric analysis (reference value: 3.9 +/- 0.5 kb); format: cell-based
[32] = tested on: DU-145; assay: Down regulation of EGFR protein expression in human DU145 cells at 48 hrs IC50 incubated for 96 hrs by Western immunoblot assay relative to control; format: functional
[33] = biological target: RAC-alpha serine/threonine-protein kinase (Homo sapiens) (UniProt P31749); assay: Effect on AKT phosphorylation at S473 in heterozygous PTEN-positive human DU145 cells as reduction in AKT phosphorylation at S473 residue at 48 hr IC50 incubated for 48 hrs by Western immunoblot assay
[34] = tested on: PC-3; assay: Effect on ERK 1/2 basal level in human PC3 cells assessed as downregulation of ERK 1/2 basal level at 48 hrs IC50 incubated for 48 hrs by Western immunoblot assay; format: ADME, cell-based; settings: pc-3, 48 h
[35] = tested on: Quadruplex DNA; assay: Stabilization of synthetic 5'Dabcyl/3'-FAM-labeled EGFR 272 G4 quadruplex DNA assessed as change in melting temperature at 1 uM by Fluorescence melting assay; format: nucleic-acid assay
[36] = tested on: PC-3; assay: Effect of EGFR protein expression in human PC3 cell assessed as reduction in EGFR level at 48 hrs IC50 treated for every week for 56 days by Western immunoblotting analysis; format: functional
[37] = species on record: Homo sapiens; assay: Effect on telomere DNA in human PC3 cells assessed as telomere DNA length at 48 hrs 0.5 times IC50 treated for every week for 56 days by pulsed field electrophoresis/southern blot based densitometric analysis (reference value: 4.6 +/- 0.3 kb); format: cell-based
[38] = tested on: PC-3; assay: Cytotoxicity against human PC3 cells assessed as decrease in cell viability after 72 hrs by MTS assay; format: functional, cell-based; settings: PC-3, 72 h
[39] = tested on: DU-145; assay: Down regulation of EGFR protein expression in human DU145 cells after 24 hrs by Western immunoblot assay; format: functional, cell-based
[40] = tested on: PC-3; assay: Cytotoxicity against human PC3 cells assessed as decrease in cell viability after 48 hrs by MTS assay; format: functional, cell-based; settings: PC-3, 48 h
[41] = tested on: PC-3; assay: Effect on human PC3 cell growth assessed as population doubling at 48 hr IC50 incubated for 96 hrs by cell counter based trypan blue exclusion assay (reference value: 2.6); format: functional
[42] = tested on: PC-3; assay: Effect on human PC3 cell growth assessed as reduction in cell growth at 72 hrs 0.5 times IC50 treated for every week for 56 days by cell counter based trypan blue exclusion assay; format: functional

T1 sequence (P27361 whole entry, looked up): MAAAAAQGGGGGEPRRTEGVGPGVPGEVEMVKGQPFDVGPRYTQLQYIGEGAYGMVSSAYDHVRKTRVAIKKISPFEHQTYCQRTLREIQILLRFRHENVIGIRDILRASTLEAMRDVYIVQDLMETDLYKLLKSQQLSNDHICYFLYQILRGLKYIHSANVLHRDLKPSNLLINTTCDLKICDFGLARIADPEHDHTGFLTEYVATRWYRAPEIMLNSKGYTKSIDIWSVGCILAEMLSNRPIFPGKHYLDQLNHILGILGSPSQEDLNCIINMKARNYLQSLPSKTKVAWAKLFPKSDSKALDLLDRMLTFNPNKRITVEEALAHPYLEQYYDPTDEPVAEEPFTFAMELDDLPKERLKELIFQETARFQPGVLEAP
T1 sequence (P28482 whole entry, looked up): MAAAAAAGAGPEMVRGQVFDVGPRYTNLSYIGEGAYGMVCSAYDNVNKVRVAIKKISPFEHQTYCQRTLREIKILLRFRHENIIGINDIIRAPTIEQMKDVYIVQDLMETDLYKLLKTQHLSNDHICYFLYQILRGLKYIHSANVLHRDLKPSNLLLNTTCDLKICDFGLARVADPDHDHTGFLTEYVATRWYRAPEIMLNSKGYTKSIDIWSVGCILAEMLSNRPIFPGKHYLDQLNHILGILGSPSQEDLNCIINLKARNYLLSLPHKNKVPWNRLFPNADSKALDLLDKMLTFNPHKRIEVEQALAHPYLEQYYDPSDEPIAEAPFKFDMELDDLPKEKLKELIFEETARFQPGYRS
Chain of RAC-alpha serine/threonine-protein kinase (Homo sapiens) (P31749 whole entry): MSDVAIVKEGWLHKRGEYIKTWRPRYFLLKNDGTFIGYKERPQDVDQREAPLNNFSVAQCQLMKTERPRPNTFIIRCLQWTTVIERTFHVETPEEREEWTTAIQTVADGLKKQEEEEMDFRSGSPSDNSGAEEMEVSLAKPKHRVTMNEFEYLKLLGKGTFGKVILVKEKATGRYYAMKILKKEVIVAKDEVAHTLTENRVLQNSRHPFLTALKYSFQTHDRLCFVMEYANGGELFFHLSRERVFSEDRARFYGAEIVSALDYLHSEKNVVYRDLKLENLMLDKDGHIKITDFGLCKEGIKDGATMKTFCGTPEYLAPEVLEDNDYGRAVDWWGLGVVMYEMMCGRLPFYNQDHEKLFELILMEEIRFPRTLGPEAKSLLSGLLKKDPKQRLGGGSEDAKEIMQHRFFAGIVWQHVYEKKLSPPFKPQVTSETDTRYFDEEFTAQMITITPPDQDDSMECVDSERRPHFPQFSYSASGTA

With `COc1ccc(CNCCCN2C(=O)c3ccc4c5c(ccc(c35)C2=O)C(=O)N(CCCNCc2ccc(OC)c(OC)c2OC)C4=O)c(OC)c1OC` the Activity [1] was “Active”, the Activity [2] was 70 - 80% and the Activity [3] was “Active”. The deltaS [4] was -46.4 cal/mol.K, the Activity [5] was “inactive” and the Activity [6] was “Toxic”. The Activity [7] was “inactive”, the Activity [8] was “Active” and the deltaH [9] was -21.5 kcal/mol. The IC50 [10] was 2260 nM, the Activity [11] was “Dose-dependent effect” and the Activity [12] was “Toxic”. The Activity [13] was “Active”, the Activity [14] was “Active” and the Activity [15] was “Toxic”. For the same molecule, the Activity [16] was “Active”, the Activity [17] was 2 and the Activity [18] was “inactive”. For the same molecule, the Activity [19] was “Active”, the IC50 [20] was 3460 nM and the deltaS [21] was -10.1 cal/mol.K. For the same molecule, the Activity [22] was “Active”, the IC50 [23] was 1360 nM and the deltaH [24] was -10.7 kcal/mol. The Activity [25] was “Active”, the Activity [26] was “Toxic” and the Activity [27] was “inactive”. The Activity [28] was “Active”, the IC50 [29] was 1720 nM and the Activity [30] was “Active”. The Activity [31] was 3.8 kilobase, the Activity [32] was 20% and the Activity [33] was “inactive”. The Activity [34] was “Toxic”, the Activity [35] was “Active” and the “inhibition (INH)” value [36] was 100%. The Activity [37] was 4.5 kilobase, the IC50 [38] was 630 nM and the Activity [39] was “Dose-dependent effect”. For the same molecule, the IC50 [40] was 970 nM, the Activity [41] was 0.51 and the Activity [42] was “Active”.
